Measurements reported in PubChem BioAssay AID256 (DTP/NCI, 2004).
Toxic doses and inconclusive results are not listed. The calls were made as follows: active = survival T/C of 150% or more; inactive = T/C below 125% in these data.

Test system: CD2F1 mice, L1210 leukemia ip, survival T/C
Assay: NCI In Vivo Anticancer Drug Screen. Data for tumor model L1210 Leukemia (intraperitoneal) in CD2F1 (CDF1) mice
Settings: endpoint: mean survival time, higher = longer survival
Method in brief: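 Transplantable tumor in mice; compound-treated vs vehicle-treated groups. Read-out = treated/control ratio of the measured endpoint.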

[1] = dose: 25.0 mg/kg/injection, schedule: Q04DX002 (ip), vehicle: saline with Tween-80
[2] = dose: 25.0 mg/kg/injection, schedule: Q01DX009 (ip), vehicle: saline with Tween-80
[3] = dose: 50.0 mg/kg/injection, schedule: Q01DX009 (ip), vehicle: saline with Tween-80
[4] = dose: 100.0 mg/kg/injection, schedule: Q01DX009 (ip), vehicle: saline with Tween-80
[5] = dose: 100.0 mg/kg/injection, schedule: Q04DX003 (ip), vehicle: saline with Tween-80
[6] = dose: 200.0 mg/kg/injection, schedule: Q01DX009 (ip), vehicle: saline with Tween-80
[7] = dose: 200.0 mg/kg/injection, schedule: Q04DX003 (ip), vehicle: saline with Tween-80
[8] = dose: 400.0 mg/kg/injection, schedule: Q04DX003 (ip), vehicle: saline with Tween-80
[9] = dose: 75.0 mg/kg/injection, schedule: Q01DX001 (ip), vehicle: saline
[10] = dose: 150.0 mg/kg/injection, schedule: Q01DX001 (ip), vehicle: saline
[11] = dose: 300.0 mg/kg/injection, schedule: Q01DX001 (ip), vehicle: saline

Measured: T/C

CNC(=O)NCC1OC(n2cnc3c(=O)[nH]c(N)nc32)C(O)C1O (stereo not given)
inactive: dose: 100.0 mg/kg/injection, schedule: Q01DX001 (ip), vehicle: saline 103 % of control | dose: 200.0 mg/kg/injection, schedule: Q01DX001 (ip), vehicle: saline 97 % of control | dose: 400.0 mg/kg/injection, schedule: Q01DX001 (ip), vehicle: saline 103 % of control

CCc1cccc(CC)c1NC(=S)NN
inactive: [1] 104 % of control | dose: 50.0 mg/kg/injection, schedule: Q04DX002 (ip), vehicle: saline with Tween-80 96 % of control | dose: 100.0 mg/kg/injection, schedule: Q04DX002 (ip), vehicle: saline with Tween-80 96 % of control

N#CC(C#N)=Cc1ccc2c(c1)CCC2
inactive: [2] 93 % of control | dose: 25.0 mg/kg/injection, schedule: Q04DX003 (ip), vehicle: saline with Tween-80 100 % of control | [3] 96 % of control | dose: 50.0 mg/kg/injection, schedule: Q04DX003 (ip), vehicle: saline with Tween-80 90 % of control | [4] 94 % of control | [5] 95 % of control

N/C(=N\O)c1ccccc1
inactive: [3] 103 % of control | [4] 98 % of control | [6] 90 % of control

CCC(=O)OC1(c2ccccc2)CCN(C/C=C/c2ccc(F)cc2)CC1
inactive: dose: 6.25 mg/kg/injection, schedule: Q01DX009 (ip), vehicle: saline with Tween-80 98 % of control | dose: 12.5 mg/kg/injection, schedule: Q01DX009 (ip), vehicle: saline with Tween-80 98 % of control | [2] 110 % of control

CN1C(=O)C2(Cc3cn(C45CC67SSC(CO)(C(=O)N6C4Nc4ccccc45)N(C)C7=O)c4ccccc34)SSC1(CO)C(=O)N2C (stereo not given)
inactive: dose: 0.31 mg/kg/injection, schedule: Q01DX009 (ip), vehicle: Klucel (hydroxypropylcellulose) (HPC) 93 % of control | dose: 0.62 mg/kg/injection, schedule: Q01DX009 (ip), vehicle: Klucel (hydroxypropylcellulose) (HPC) 100 % of control | dose: 1.25 mg/kg/injection, schedule: Q01DX009 (ip), vehicle: Klucel (hydroxypropylcellulose) (HPC) 100 % of control

CC(=O)N(C)c1ccc(NC(=O)Nc2ccc(C)c(C)c2)cc1
inactive: [3] 91 % of control | [4] 91 % of control | [6] 88 % of control

c1ccc2c(c1)Cc1c(NC3=NCCO3)cccc1-2
inactive: [5] 98 % of control | [7] 109 % of control | [8] 101 % of control

COc1ccc(CC2C(=O)OC(=O)C2Cc2ccc(OC)c(OC)c2)cc1OC (stereo not given)
inactive: [4] 104 % of control | [6] 108 % of control | dose: 400.0 mg/kg/injection, schedule: Q01DX009 (ip), vehicle: saline with Tween-80 96 % of control

COc1cc(C2CNCc3cc(OC)c(OC)cc32)ccc1O (stereo not given)
inactive: [9] 96 % of control | [10] 104 % of control | [11] 100 % of control

Nc1nc(N)c2c(n1)CN(c1ccccc1)C2
inactive: [9] 102 % of control | [10] 104 % of control | [11] 106 % of control

ClCc1c2ccccc2cc2ccccc12
inactive: [1] 104 % of control

CC(=O)CC(=O)C(F)(F)F.CC(=O)CC(=O)C(F)(F)F.CC(=O)CC(=O)C(F)(F)F.[Sm]
inactive: [5] 95 % of control | [7] 100 % of control | [8] 100 % of control
